Consider 2 molecules from PMC11047535, “Pharmacokinetics and Nephrotoxicity of Polymyxin MRX-8 in Rats: A Novel Agent against Resistant Gram-Negative Bacteria” (Antibiotics, 2024).

Format in all cases: in vivo, Sprague-Dawley (SD) rats
The nature of data set [1]: Pharmacokinetics in rat plasma after single subcutaneous administration (LC-MS/MS, non-compartmental analysis). Particulars: for CLz (total body clearance for extravascular administration) / V (volume of distribution) / AUC(0-t) / Cmax / Tmax / MRT / half-life: LC-MS/MS, NCA, n = 5; for AUC(0-t) / Cmax / Tmax / MRT / half-life: Sprague-Dawley, sc; for MRT: read-out: MRT (mean residence time); for half-life: read-out: T1/2 (terminal half-life) (converted). As to the method:
A Shimadzu LC-30A UHPLC system (Shimadzu, Kyoto, Japan) coupled with a Sciex QTRAP-5500 tandem mass spectrometer (Sciex, Framingham, MA, USA) was utilized. The chromatography was separated on a PHENOMENEX Kinetex®XB-C18 column (Phenomenex, Torrance, CA, USA) (100 mm × 2.1 mm, 2.6 μm) at 40 °C. The mobile phases were 2 mM of an ammonium acetate solution with 0.1% formic acid as the aqueous phase and acetonitrile solution with 0.1% formic acid as the organic phase. The gradient elution condition settings are detailed in Table S1. The mass spectrometer was operated in positive ESI mode with the following parameters: nebulizer gas (45 psi), heater gas (55 psi), curtain gas (40 psi), ion-spray voltage 4500 V, and ion source temperature of 450 °C.
An aliquot of 40 μL of rat plasma samples, 50 μL of polymyxin B1 (IS, 20 mg/L), and 50 μL of 6% formic acid in water were mixed. Then, 300 μL of acetonitrile was added to the mixture to precipitate proteins and centrifuged at 4 °C at 13,800 g for 10 min. A 100 μL aliquot of the supernatant was transferred and mixed with 150 μL of 6% formic acid water, and 5 μL was injected into the LC-MS/MS system.
A total of 20 wild-type male Sprague-Dawley (SD) rats weighing 280 g ± 20 g were randomly divided into 4 groups. Water and food were adequately provided. Four groups were given MRX-8 at doses of 2 mg/kg, 4 mg/kg, 6 mg/kg, and 8 mg/kg of body weight (dissolved in normal saline). 0.5 mL of blood samples were obtained from the jugular vein (without anesthesia) before and 0.25, 0.5, 1, 2, 4, 6, 8, and 24 h after dosing. Blood samples were collected into tubes with EDTA-K2 anticoagulant and centrifuged at 4 °C at 3500 g for 10 min. The plasma was collected and stored in a −70 °C refrigerator until analysis.
In the meantime, 10 additional SD rats were divided into two groups (5 rats each) and administered PMB at 4 mg/kg and 8 mg/kg, separately. Blood samples were obtained before and 0.25, 0.5, 1, 2, 4, 6, 8, 10, 12, and 24 h after dosing. The drug administration and sample collection methods were consistent with those used for MRX-8.
MRX-8 and MRX-8039 concentrations in plasma were measured, and mean concentration–time curves were plotted. […] After the administration, concentrations below the LLOQ were discarded.

The subject of data set [2] is rats. Briefly: Plasma NGAL kidney injury biomarker, ELISA. Particulars: 24 h after single s.c. 8 mg/kg, saline group 53.03 ± 2.25. The procedure: (§1) Rats’ plasma and urine were collected continuously for 24 h after being administered subcutaneously. The plasma collected for the PK assay was split for creatinine and BUN concentrations, whereas a separate experiment was conducted to measure the biomarkers. The concentrations of creatinine and BUN in rat plasma were quantified utilizing the ADVIA Chemistry XPT analyzer (Siemens Healthcare, Munich, Germany). Rat plasma samples, along with quality control samples, were prepared and processed with dedicated reagent cartridges.
(§2) Enzyme-linked immunosorbent assay kits specific for KIM-1 (Cell Signaling Technology, Danvers, MA, USA), NGAL (Sangon Biotech, Shanghai, China), and TIMP-1 (Sangon Biotech, Shanghai, China) were utilized for analysis.

A further data set relates to rat kidney tissues. The data set is described as follows: Kidney histology, PAS staining and semi-quantitative scores (SQS). Particulars: PAS staining. As to the method: The kidney tissues were taken 24 h after the PK sample collection. The tissues were embedded in paraffin, sliced, dewaxed into water, and washed for 5 min. […] The pathology scores refer to the paper published by Jumana et al.. Briefly, the renal histological assessment included three grades of tubular damage. Scores were assigned to grades: grade 1 = 1, grade 2 = 4, and grade 3 = 10. Kidney involvement was assessed based on the percentage of affected slices: <1% = 0, 1 to <5% = 1, 5 to <10% = 2, 10 to <20% = 3, 20 to <30% = 4, 30 to <40% = 5, and ≥40% = 6. The overall score was calculated by multiplying the percentage score with the grade score. Finally, SQS for renal histological changes was assigned: SQS 0 = no significant change (overall score: <1); SQS +1 = mild damage (overall score: 1 to <15); SQS +2 = mild-to-moderate damage (overall score: 15 to <30); SQS +3 = moderate damage (overall score: 30 to <45); SQS +4 = moderate-to-severe damage (overall score: 45 to <60); and SQS +5 = severe damage (overall score: 60). The samples in this experiment were examined by pathologist Shaojun Liu, who had no knowledge of the grouping.
A one-way ANOVA was performed to evaluate (1) the PK parameters of T1/2, CLZ, V, and MRT at the dosages of 4, 6, and 8 mg/kg; (2) the concentrations of kidney injury biomarkers between the saline, MRX-8, and PMB groups. […]

Data set [3] concerns rats. Briefly: Urinary NGAL kidney injury biomarker, ELISA. Particulars: saline group 45.22 ± 1.46. As to the method: as §1, §2
In general terms: ELISA stands for enzyme-linked immunosorbent assay.

The test system of data set [4] is rats. The data set is described as follows: Creatinine in rat plasma (nephrotoxicity), ADVIA Chemistry XPT analyzer. Particulars: for creatinine concentration: SD rats. The procedure: as §1
Data set [5] relates to rats. The data set is described as follows: Urinary TIMP-1 kidney injury biomarker, ELISA. Particulars: for urinary TIMP-1 level: saline group 2.89 ± 1.80. The procedure:
as §1, §2

Data set [6] has as its system rats. Briefly: Urinary KIM-1 kidney injury biomarker, ELISA. Particulars: 24 h after single s.c. 4 and 8 mg/kg, high variability within each group. The procedure:
as §1, §2

Data set [7] has as its system rats. Briefly: Blood urea nitrogen (BUN) in rat plasma (nephrotoxicity), ADVIA Chemistry XPT analyzer. Particulars: for BUN level: SD rats. As to the method:
as §1

Where [8] appears, read: SD rats, single s.c. dose 4 mg/kg, plasma.
Setting [9] is: SD rats, single s.c. dose 8 mg/kg, plasma.
Setting [10] is: rat, in vivo, SD rats, single s.c. dose 4 mg/kg, plasma.
Setting [11] is: rat, in vivo, SD rats, single s.c. dose 8 mg/kg, plasma.

Where two headings read alike, the source gives them in different places. Positions of bridges follow the written chain, without caps; N, C: chain ends. Non-standard residues stand in square brackets, D forms with d. Residues, ends and D or L forms follow the SMILES beside them. *: point of attachment. Propanoyl(3-OH) = O=C(CCO)*; X1 = CC[C@H](C)CCCCC(=O)*; Dab = NCC[C@H](N)C(=O)O

Turning to `CC(C)C[C@@H]1NC(=O)[C@@H](Cc2ccccc2)NC(=O)[C@H](CCN)NC(=O)[C@@H](NC(=O)[C@H](CCN)NC(=O)[C@@H](NC(=O)[C@H](CCN)NC(=O)CCO)[C@@H](C)O)CCNC(=O)[C@H]([C@@H](C)O)NC(=O)[C@H](CCN)NC(=O)[C@H](CCN)NC1=O` [MRX-8039] ({Propanoyl(3-OH)}-[Dab]T[Dab][Dab][Dab][dF]L[Dab][Dab]T; lactam 4-C), the “Tmax delay of MRX-8039 relative to MRX-8” value in data set [1] (rat, in vivo) is given as “approximately 1.5 h”.

Turning to `CC[C@H](C)CCCCC(=O)N[C@@H](CCN)C(=O)N[C@H](C(=O)N[C@@H](CCN)C(=O)N[C@H]1CCNC(=O)[C@H]([C@@H](C)O)NC(=O)[C@H](CCN)NC(=O)[C@H](CCN)NC(=O)[C@H](CC(C)C)NC(=O)[C@@H](Cc2ccccc2)NC(=O)[C@H](CCN)NC1=O)[C@@H](C)O` [PMB, polymyxin B] (X1-[Dab]T[Dab][Dab][Dab][dF]L[Dab][Dab]T; lactam 4-C), in the data set on rats [2], the “NGAL level in plasma” value is on record as 61.14 ± 2.52 ng/mL. Also, the “histological findings in kidney tissues” value in the data set on rat kidney tissues (24 h post single s.c. dose of 8 mg/kg) is “more severe renal damage, including tubular dilation, cellular necrosis, and tubular formation”; in the data set with rat kidney tissues (24 h post single s.c. dose, compared to the saline group), “mild focal tubular cell shedding and cytoplasmic attenuation”. In addition, the “urinary NGAL level” value with rats [3] (24 h after single s.c. 4 mg/kg) is 50.34 ± 2.70 ng/mL; with rats [3] (24 h after single s.c. 8 mg/kg), 56.95 ± 6.01 ng/mL. Besides, in data set [1] (SD rats, s.c. administration, plasma, range over dose groups), the “Tmax (absorption, as read from Figure 3)” value is 4~6 h. In addition, the figures for the “CLz (total body clearance for extravascular administration)” value in data set [1] (setting [8]) and in data set [1] (setting [9]) were 4 ± 1 mL/min/kg and 4.17 ± 0.33 mL/min/kg, respectively. Further, the figures for the “V (volume of distribution)” value in data set [1] (setting [8]) and in data set [1] (setting [9]) were 1.52 ± 0.27 L/kg and 1.49 ± 0.31 L/kg, respectively. The AUC(0-t) in data set [1] (rat, in vivo, 4 mg/kg, SD rats, single s.c. dose 4 mg/kg, plasma, read-out: AUC0–8 h) stood at 9550 ± 2540 ng·h/mL; in data set [1] (rat, in vivo, 4 mg/kg, SD rats, single s.c. dose 4 mg/kg, plasma, read-out: AUC0–24 h), 17100 ± 3900 ng·h/mL; in data set [1] (rat, in vivo, 8 mg/kg, SD rats, single s.c. dose 8 mg/kg, plasma, read-out: AUC0–8 h), 17900 ± 3050 ng·h/mL; in data set [1] (rat, in vivo, 8 mg/kg, SD rats, single s.c. dose 8 mg/kg, plasma, read-out: AUC0–24 h) it was 31200 ± 3140 ng·h/mL. The values for the Cmax in data set [1] (setting [10]) and in data set [1] (setting [11]) were 1770 ± 510 ng/mL and 3150 ± 440 ng/mL, respectively. For the same molecule, the figures for the Tmax in data set [1] (setting [10]) and in data set [1] (setting [11]) were 4.8 ± 1.1 h and 6 h, respectively. Moreover, the MRT in data set [1] (setting [10]) was determined as 8.66 ± 0.7 h; in data set [1] (setting [11]), 8.23 ± 0.71 h. Further, the half-life in data set [1] (setting [10]) was 4.55 ± 0.56 h; in data set [1] (setting [11]), 4.09 ± 0.44 h. Further, the creatinine concentration with rats [4] (8 h after single s.c. 4 mg/kg, saline group 21.25 ± 2.22) worked out at 103.86 ± 12.66 µmol/L; with rats [4] (8 h after single s.c. 8 mg/kg, saline group 21.25 ± 2.22) it was 85.61 ± 17.27 µmol/L; in the data set on rats [4] (24 h after single s.c. 4 mg/kg, saline group 22.5 ± 2.52) it was 169.79 ± 61.93 µmol/L; with rats [4] (24 h after single s.c. 8 mg/kg, saline group 22.5 ± 2.52), 110.81 ± 67.3 µmol/L. In the data set with rats [4] (8 h and 24 h after single s.c. dose (MRX-8 2 to 8 mg/kg; PMB 4 and 8 mg/kg), one-way ANOVA), the “change of blood creatinine levels compared to the saline group” value was “significant increase”. Moreover, the entries for the “urinary TIMP-1 level” value in the data set with rats [5] (24 h after single s.c. 4 mg/kg) and with rats [5] (24 h after single s.c. 8 mg/kg) were 20.65 ± 12.44 ng/mL and 20.54 ± 7.82 ng/mL, respectively. Besides, in the data set on rats [5] (24 h after single s.c. 4 and 8 mg/kg), the “change of urinary TIMP-1 compared to the saline group” value is on record as “increased significantly”. In the data set with rats [6], the “change of urine KIM-1 levels compared to the saline group” value was “No statistically significant differences”. Also, the BUN level turned out to be 19.58 ± 3.05 mmol/L in the data set with rats [7] (8 h after single s.c. 4 mg/kg, saline group 5.52 ± 0.56); 15.36 ± 3.05 mmol/L in the data set on rats [7] (8 h after single s.c. 8 mg/kg); 44.3 ± 1.12 mmol/L in the data set with rats [7] (24 h after single s.c. 4 mg/kg); 54.85 ± 11.81 mmol/L in the data set on rats [7] (24 h after single s.c. 8 mg/kg). Further, in the data set with rats [7] (8 h and 24 h after single s.c. dose (PMB 4 and 8 mg/kg; MRX-8, except significant increase at 4 mg/kg at 8 h)), the “change of BUN levels compared to the saline group” value is given as “significant increase”.

In general, Cmax refers to the peak of the concentration-time curve. The Tmax is the time at which the peak concentration occurs. For orientation: MRT means a mean duration of stay, worked out from the concentration-time curve.
